# Assay results reported in patent US9475779B2, “Substituted bicyclic dihydropyrimidinones and their use as inhibitors of neutrophil elastase activity” (priority 2014, dated 2016).
# Molecular target: neutrophil elastase (Homo sapiens (Human), UniProt P08246)
# Assay: biochemical
# Format: biochemical
# Conditions: IC50
# Experimental: Human Neutrophil Elastase Assay
# All other materials were of the highest grade commercially available.
# The following buffers were used: Compound buffer: 100 mM Tris, 500 mM NaCl, adjusted to pH 7.5; Assay buffer: 100 mM Tris, 500 mM NaCl, adjusted to pH 7.5, containing 0.01% BSA.
# Assay conditions: Test compounds were prediluted in DMSO and subsequently in compound buffer (5% DMSO final). […] After inactivation of the enzyme, fluorescence intensities were measured at 380 nm excitation and 460 nm emission wavelengths.
# Each plate contains wells with a high value control (DMSO+enzyme+substrate) and wells with a low value control (DMSO+inactivated enzyme+substrate). IC50 values were estimated using a sigmoidal concentration response curve with variable slope. Means of low values were taken as 0%, means of high values as 100%.
# Sequence of neutrophil elastase (P08246 whole entry, looked up): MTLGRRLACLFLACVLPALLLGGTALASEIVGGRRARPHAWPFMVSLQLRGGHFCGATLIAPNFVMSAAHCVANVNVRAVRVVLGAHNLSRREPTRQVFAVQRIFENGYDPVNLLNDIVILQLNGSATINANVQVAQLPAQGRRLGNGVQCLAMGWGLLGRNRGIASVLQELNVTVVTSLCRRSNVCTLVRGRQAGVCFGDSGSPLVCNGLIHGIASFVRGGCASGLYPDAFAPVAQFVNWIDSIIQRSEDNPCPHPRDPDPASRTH
row,SMILES,IC50
1,"CCNC(=O)N1C(=O)N(c2ccnc(C(F)(F)F)c2)C2=C(C(=O)CC2)C1c1ccc(C#N)cc1S(=O)(=O)CC (racemic) [Example D.4.1, 4-(4-cyano-2-ethanesulfonyl-phenyl)-2,5-dioxo-1-(2-trifluoromethyl-pyridin-4-yl)-1,2,4,5,6,7-hexahydro-cyclopentapyrimidine-3-carboxylic acid ethylamide]",< 1 nM
2,"CN1C(=O)N(c2cccc(C(F)(F)F)c2)C2=C(C(=O)CC2)C1c1ccc(C#N)cc1CO (single isomer, unassigned) [Example A.1B, 3-Hydroxymethyl-4-[3-methyl-2,5-dioxo-1-(3-trifluoromethyl-phenyl)-2,3,4,5,6,7-hexahydro-1H-cyclopentapyrimidin-4-yl]-benzonitrile]",2780 nM
3,"CCS(=O)(=O)c1cc(C#N)ccc1C1C2=C(CCC2=O)N(c2ccnc(C(F)(F)F)c2)C(=O)N1C (single isomer, unassigned) [Example D.3A, 3-Ethanesulfonyl-4-[3-methyl-2,5-dioxo-1-(2-trifluoromethyl-pyridin-4-yl)-2,3,4,5,6,7-hexahydro-1H-cyclopentapyrimidin-4-yl]-benzonitrile]",2810 nM
4,"CCS(=O)(=O)c1cc(C#N)ccc1C1NC(=O)N(c2cccc(C(F)F)c2)C2=C1C(=O)CC2 (single isomer, unassigned) [Example D.5B, 4-[1-(3-Difluoromethyl-phenyl)-2,5-dioxo-2,3,4,5,6,7-hexahydro-1H-cyclopentapyrimidin-4-yl]-3-ethanesulfonyl-benzonitrile]",892 nM

# Same assay, conditions: IC50, Neutrophil Elastase assay, substrate MeOSuc-Ala-Ala-Pro-Val-AMC
row,SMILES,IC50
1,"CN1C(=O)N(c2cccc(C(F)(F)F)c2)C2=C(C(=O)CC2)C1c1ccc(C#N)cc1S(=O)(=O)CCO (single isomer, unassigned) [Example B.1.2A]",224 nM

# Same assay, conditions: Neutrophil Elastase assay, substrate MeOSuc-Ala-Ala-Pro-Val-AMC; read-out: IC50
row,SMILES,IC50
1,"CCNC(=O)N1C(=O)N(c2ccnc(C(F)(F)F)c2)C2=C(C(=O)CC2)C1c1ccc(C#N)cc1S(C)(=O)=O (single isomer, unassigned) [D.4.10]",< 1 nM
2,"CN1C(=O)N(c2cccc(C(F)(F)F)c2)C2=C(C(=O)CC2)C1c1ccc(C#N)cc1[S+](C)[O-] (single isomer, unassigned) [Example C.1A, 3-Methanesulfinyl-4-[3-methyl-2,5-dioxo-1-(3-trifluoromethyl-phenyl)-2,3,4,5,6,7-hexahydro-1H-cyclopentapyrimidin-4-yl]-benzonitrile]",1820 nM
3,"CN1C(=O)N(c2cccc(C(F)(F)F)c2)C2=C(C(=O)CC2)C1c1ccc(C#N)cc1[S+](C)[O-] (single isomer, unassigned) [Example C.2B, 3-Methanesulfinyl-4-[3-methyl-2,5-dioxo-1-(3-trifluoromethyl-phenyl)-2,3,4,5,6,7-hexahydro-1H-cyclopentapyrimidin-4-yl]-benzonitrile]",13 nM
4,"CCNC(=O)N1C(=O)N(c2ccnc(C(F)(F)F)c2)C2=C(C(=O)CC2)C1c1ccc(C#N)cc1S(=O)(=O)CC (single isomer, unassigned) [Example D.4.1B, 4-(4-cyano-2-ethanesulfonyl-phenyl)-2,5-dioxo-1-(2-trifluoromethyl-pyridin-4-yl)-1,2,4,5,6,7-hexahydro-cyclopentapyrimidine-3-carboxylic acid ethylamide]",338 nM
5,COCCS(=O)(=O)c1cc(C#N)ccc1C1NC(=O)N(c2cccc(C(F)(F)F)c2)C2=C1C(=O)CC2 (stereo not shown) [B.1.1],5.7 nM
6,COCCS(=O)(=O)c1cc(C#N)ccc1C1C2=C(CCC2=O)N(c2cccc(C(F)(F)F)c2)C(=O)N1C (stereo not shown) [B.1.4],< 1 nM
7,CS(=O)(=O)c1cc(C#N)ccc1C1NC(=O)N(c2cncc(C(F)(F)F)c2)C2=C1C(=O)CC2 (stereo not shown) [D.2.1],60 nM
8,CS(=O)(=O)c1cc(C#N)ccc1C1NC(=O)N(c2cc(C(F)(F)F)ccn2)C2=C1C(=O)CC2 (stereo not shown) [D.2.2],65 nM
9,CS(=O)(=O)c1cc(C#N)ccc1C1NC(=O)N(c2cncc(Br)c2)C2=C1C(=O)CC2 (stereo not shown) [D.2.3],101 nM
10,CS(=O)(=O)c1cc(C#N)ccc1C1NC(=O)N(c2cncc(Cl)c2)C2=C1C(=O)CC2 (stereo not shown) [D.2.4],103 nM
11,CN1C(=O)N(c2cncc(C(F)(F)F)c2)C2=C(C(=O)CC2)C1c1ccc(C#N)cc1S(C)(=O)=O (stereo not shown) [D.3.1],8.8 nM
12,CN1C(=O)N(c2cncc(Br)c2)C2=C(C(=O)CC2)C1c1ccc(C#N)cc1S(C)(=O)=O (stereo not shown) [D.3.3],13 nM
13,CN1C(=O)N(c2cncc(Cl)c2)C2=C(C(=O)CC2)C1c1ccc(C#N)cc1S(C)(=O)=O (stereo not shown) [D.3.4],8.1 nM
14,CNC(=O)N1C(=O)N(c2cncc(C(F)(F)F)c2)C2=C(C(=O)CC2)C1c1ccc(C#N)cc1S(C)(=O)=O (stereo not shown) [D.4.2],< 1 nM
15,CCNC(=O)N1C(=O)N(c2cncc(C(F)(F)F)c2)C2=C(C(=O)CC2)C1c1ccc(C#N)cc1S(C)(=O)=O (stereo not shown) [D.4.3],< 1 nM
16,CNC(=O)N1C(=O)N(c2cncc(Br)c2)C2=C(C(=O)CC2)C1c1ccc(C#N)cc1S(C)(=O)=O (stereo not shown) [D.4.6],1.2 nM
17,CCNC(=O)N1C(=O)N(c2cncc(Br)c2)C2=C(C(=O)CC2)C1c1ccc(C#N)cc1S(C)(=O)=O (stereo not shown) [D.4.7],< 1 nM
18,CCNC(=O)N1C(=O)N(c2cncc(Cl)c2)C2=C(C(=O)CC2)C1c1ccc(C#N)cc1S(C)(=O)=O (stereo not shown) [D.4.9],< 1 nM
19,"N#Cc1ccc(C2NC(=O)N(c3cccc(C(F)(F)F)c3)C3=C2C(=O)CC3)c(S(=O)(=O)CCCO)c1 (stereo not shown) [Example B.1, 4-[2,5-Dioxo-1-(3-trifluoromethyl-phenyl)-2,3,4,5,6,7-hexahydro-1H-cyclopentapyrimidin-4-yl]-3-(3-hydroxy-propane-1-sulfonyl)-benzonitrile]",2.1 nM
20,"CCNC(=O)N1C(=O)N(c2cccc(C(F)(F)F)c2)C2=C(C(=O)CC2)C1c1ccc(C#N)cc1[S+](C)[O-] (stereo not shown) [Example C.3, 4-(4-Cyano-2-methanesulfinyl-phenyl)-2,5-dioxo-1-(3-trifluoromethyl-phenyl)-1,2,4,5,6,7-hexahydro-cyclopentapyrimidine-3-carboxylic acid ethylamide]",< 1 nM
21,"CCS(=O)(=O)c1cc(C#N)ccc1C1NC(=O)N(c2ccnc(C(F)(F)F)c2)C2=C1C(=O)CC2 (stereo not shown) [Example D.2, 4-[2,5-Dioxo-1-(2-trifluoromethyl-pyridin-4-yl)-2,3,4,5,6,7-hexahydro-1H-cyclopentapyrimidin-4-yl]-3-ethanesulfonyl-benzonitrile]",24 nM
22,"CCS(=O)(=O)c1cc(C#N)ccc1C1C2=C(CCC2=O)N(c2ccnc(C(F)(F)F)c2)C(=O)N1C(=O)NC (stereo not shown) [Example D.4, 4-(4-Cyano-2-ethanesulfonyl-phenyl)-2,5-dioxo-1-(2-trifluoromethyl-pyridin-4-yl)-1,2,4,5,6,7-hexahydro-cyclopentapyrimidine-3-carboxylic acid methylamide]",< 1 nM

# Same assay, conditions: read-out: IC50
row,SMILES,IC50
1,"CCS(=O)(=O)c1cc(C#N)ccc1C1C2=C(CCC2=O)N(c2ccnc(C(F)(F)F)c2)C(=O)N1C (racemic) [Example D.3, 3-Ethanesulfonyl-4-[3-methyl-2,5-dioxo-1-(2-trifluoromethyl-pyridin-4-yl)-2,3,4,5,6,7-hexahydro-1H-cyclopentapyrimidin-4-yl]-benzonitrile]",4 nM
2,"CCS(=O)(=O)c1cc(C#N)ccc1C1NC(=O)N(c2cccc(C(F)F)c2)C2=C1C(=O)CC2 (racemic) [Example D.5, 4-[1-(3-Difluoromethyl-phenyl)-2,5-dioxo-2,3,4,5,6,7-hexahydro-1H-cyclopentapyrimidin-4-yl]-3-ethanesulfonyl-benzonitrile]",5.5 nM
3,"CC[S+]([O-])c1cc(C#N)ccc1C1NC(=O)N(c2cccc(C(F)(F)F)c2)C2=C1C(=O)CC2 (single isomer, unassigned) [Example C.4.1, 4-[2,5-Dioxo-1-(3-trifluoromethyl-phenyl)-2,3,4,5,6,7-hexahydro-1H-cyclopentapyrimidin-4-yl]-3-ethanesulfinyl-benzonitrile]",5.2 nM
4,"CC[S+]([O-])c1cc(C#N)ccc1C1NC(=O)N(c2cccc(C(F)(F)F)c2)C2=C1C(=O)CC2 (single isomer, unassigned) [Example C.4.2, 4-[2,5-Dioxo-1-(3-trifluoromethyl-phenyl)-2,3,4,5,6,7-hexahydro-1H-cyclopentapyrimidin-4-yl]-3-ethanesulfinyl-benzonitrile]",8.9 nM
5,"CC[S+]([O-])c1cc(C#N)ccc1C1C2=C(CCC2=O)N(c2cccc(C(F)(F)F)c2)C(=O)N1C(=O)NC (single isomer, unassigned) [Example C.6.1, 4-(4-Cyano-2-ethanesulfinyl-phenyl)-2,5-dioxo-1-(3-trifluoromethyl-phenyl)-1,2,4,5,6,7-hexahydro-cyclopentapyrimidine-3-carboxylic acid methylamide]",< 1 nM
6,"CC[S+]([O-])c1cc(C#N)ccc1C1C2=C(CCC2=O)N(c2cccc(C(F)(F)F)c2)C(=O)N1C(=O)NC (single isomer, unassigned) [Example C.6.2, 4-(4-Cyano-2-ethanesulfinyl-phenyl)-2,5-dioxo-1-(3-trifluoromethyl-phenyl)-1,2,4,5,6,7-hexahydro-cyclopentapyrimidine-3-carboxylic acid methylamide]",< 1 nM
7,CN1C(=O)N(c2cc(C(F)(F)F)ccn2)C2=C(C(=O)CC2)C1c1ccc(C#N)cc1S(C)(=O)=O (stereo not shown) [D.3.2],9.5 nM
8,CNC(=O)N1C(=O)N(c2cncc(Cl)c2)C2=C(C(=O)CC2)C1c1ccc(C#N)cc1S(C)(=O)=O (stereo not shown) [D.4.8],< 1 nM
9,"CN1C(=O)N(c2cccc(C(F)(F)F)c2)C2=C(C(=O)CC2)C1c1ccc(C#N)cc1CO (stereo not shown) [Example A.1, 3-Hydroxymethyl-4-[3-methyl-2,5-dioxo-1-(3-trifluoromethyl-phenyl)-2,3,4,5,6,7-hexahydro-1H-cyclopentapyrimidin-4-yl]-benzonitrile]",1.6 nM
10,"CCS(=O)(=O)c1cc(C#N)ccc1C1C2=C(CCC2=O)N(c2cccc(C(F)F)c2)C(=O)N1C (stereo not shown) [Example D.6, 4-[1-(3-Difluoromethyl-phenyl)-3-methyl-2,5-dioxo-2,3,4,5,6,7-hexahydro-1H-cyclopentapyrimidin-4-yl]-3-ethanesulfonyl-benzonitrile]",< 1 nM
